# Reference: patent publication US12161689B2, “Anti-infective formulations” (NEW MEXICO TECH UNIVERSITY RESEARCH PARK CORPORATION, priority 2018, dated 2024)
# Where a SMILES comes first, the peptide text is derived from it. Bridges are numbered along the chain shown (N, C = ends). [ ]: non-standard residue; d: D form. The star is where a group is joined. Ileψ(thiazoline)Cys = CC[C@H](C)[C@H](N)C1=N[C@H](C(=O)*)CS1; dOrn = NCCC[C@@H](N)C(=O)O
# How the values were obtained:
# red blood cells = experiment: Hemolysis on blood agar plate; details: 5 μL spotted; refrigerated overnight
# [1] = test system: CRE NDM-1 MDR (ATCC BAA 2146); experiment: Spot on lawn, MHA plate: killing / diameter of clearance; format: cell-based, Enterobacteriaceae; parameters: key to antibacterial activity: “+” indicates antibacterial activity with complete clearing; “−” indicates no antibacterial activity; details: for antibacterial activity: 24 to 48 hours at 37° C.
# [2] = test system: Stenotrophomonas maltophilia (ATCC 13637); experiment: as above; format: cell-based; parameters: key: “+” indicates antibacterial activity with complete clearing; “−” indicates no antibacterial activity; details: S. maltophilia (ATCC 13637); 10 μL spot; 24 to 48 hours at 37° C.
# [3] = test system: Mycobacterium abscessus (ATCC 19977); experiment: as above; format: cell-based; parameters: key: “+” indicates antibacterial activity with complete clearing; “−” indicates no antibacterial activity; details: 10 μL spot, 24 to 48 hours at 37° C.
# [4] = test system: multi-drug-resistant E. coli CDC AR0493; experiment: Spot on lawn, MHA plate: killing; format: cell-based; details: 10 μL spot, 24 to 48 hours at 37° C.
# [5] = test system: Escherichia coli (O157:H7) (ATCC 51657); experiment: Spot on lawn, MHA plate: killing / diameter of clearance; format: cell-based; parameters: key to antibacterial activity: “+” indicates antibacterial activity with complete clearing; “−” indicates no antibacterial activity; details: for antibacterial activity: 24 to 48 hours at 37° C.
# [6] = test system: multi-drug resistant Pseudomonas aeruginosa (ATCC 2114); experiment: as above; format: cell-based; details: 10 μL spot; for antibacterial activity: 24 to 48 hours at 37° C.
# Streptococcus pyogenes = experiment: as above; format: cell-based; parameters: key to antibacterial activity: “+” indicates antibacterial activity with complete clearing; “−” indicates no antibacterial activity; details: for antibacterial activity / killing of Streptococcus pyogenes: 10 μL spot; for antibacterial activity: 24 to 48 hours at 37° C.; for killing of Streptococcus pyogenes: incubation period of 1 day; for killing of S. pyogenes: after 7 days of incubation
# [7] = test system: Vancomycin-resistant enterococcus (VRE) (ATCC 51299); experiment: as above; format: cell-based; parameters: key to antibacterial activity: “+” indicates antibacterial activity with complete clearing; “−” indicates no antibacterial activity; details: 10 μL spot; for antibacterial activity: 24 to 48 hours at 37° C.
# [8] = test system: multi-drug resistant Acinetobacter baumannii (ATCC 1797); experiment: as above; format: cell-based; details: 10 μL spot; for antibacterial activity: 24 to 48 hours at 37° C.
# MRSA (ATCC BAA44) = experiment: as above; format: cell-based, Staphylococcus aureus; details: for antibacterial activity: 24 to 48 hours at 37° C.
# Yesenia pestis (Kimo 6) = format: cell-based, Yersinia pestis; details: 10 μL spot; for antibacterial activity: Yersinia pestis KIM6, 24 to 48 hours at 37° C.; for efficacy against Yesenia pestis (Kimo 6), comparison with antibiotics: incubation period of 1 day
# [9] = test system: Bacillus subtilis (ATCC 6633); experiment: Spot on lawn, MHA plate: killing / diameter of clearance; format: cell-based; details: 10 μL spot; incubation period of 1 day
# [10] = test system: multi-drug resistant Burkholderia cepacia (ATCC 10856); experiment: as above; format: cell-based; details: for killing of multi-drug resistant Burkholderia cepacia: 10 μL, overnight at 37° C. (FIG. 63); for antibacterial activity: 10 μL spot, 24 to 48 hours at 37° C.
# MRSA BAA-1717 (USA 300) = experiment: as above; details: 10 μL; overnight at 37° C. (FIG. 63)
# [11] = test system: multi-drug resistant E. coli (AR 0346); experiment: Spot on lawn, MHA plate: killing; format: cell-based; details: 10 μL; 3 days at 37° C.
# Description: An overnight growth of multi-drug resistant E. coli (AR 0346) was made in MHB. The samples were diluted 1:1000, and spread onto a MHA plate.
# MCR-1 E. coli (AR 0350) = experiment: Spot on lawn, MHA plate: killing; format: cell-based; details: 10 μL drops; 1 day at 37° C.
# Description: An overnight growth of MCR-1 E. coli (AR 0350) was made in MHB, and was spread undiluted onto a MHA plate.
# [12] = test system: multi-drug resistant E. coli (AR 0348); experiment: Spot on lawn, MHA plate: killing; format: cell-based; details: 10 μL; 1 day at 37° C.
# Description: An overnight growth of multi-drug resistant E. coli (AR 0348) was made in MHB. The samples were diluted 1:1000, and spread onto a MHA plate.
# [13] = test system: Shigella flexneri 85W 2332; experiment: Spot on lawn, MHA plate: killing; format: cell-based; details: 10 μL spot, 24 to 48 hours at 37° C.
# [14] = test system: Salmonella enteriditis CDC AR0496; experiment: Spot on lawn, MHA plate: killing; format: cell-based; details: 10 μL spot, 24 to 48 hours at 37° C.
# [15] = CRE NDM-1 (MDR) ATCC BAA-2146, 10 μL spot
# [16] = CRE NDM-1 MDR (ATCC BAA 2146), 10 μL spot
# [17] = Mycobacterium abscessus ATCC19977
# [18] = E. Coli (O157:H7) (ATCC 51657), 10 μL spot
# [19] = Streptococcus pyogenes 85W 1180
# [20] = 10 μL spot, incubation period of 1 day
# [21] = Burkholderia cepacia ATCC 10856
compound,measurement,setting,value
O=C(OOC(=O)c1ccccc1)c1ccccc1 [benzoyl peroxide],blood hemolysis,red blood cells,complete hemolysis
CC[C@H](C)[C@H](N)C1=N[C@H](C(=O)N[C@@H](CC(C)C)C(=O)N[C@H](CCC(=O)O)C(=O)N[C@H](C(=O)N[C@H]2CCCCNC(=O)[C@H](CC(N)=O)NC(=O)[C@@H](CC(=O)O)NC(=O)[C@H](Cc3cnc[nH]3)NC(=O)[C@@H](Cc3ccccc3)NC(=O)[C@H]([C@@H](C)CC)NC(=O)[C@@H](CCCN)NC2=O)[C@@H](C)CC)CS1 [Bacitracin] ({Ileψ(thiazoline)Cys}-L[dE]IK[dOrn]I[dF]H[dD]N; lactam 4-C),antibacterial activity,[1]; [15],−
same,antibacterial activity,[1]; [16],−
same,antibacterial activity,[2],−
same,antibacterial activity,[3]; M. abscessus (ATCC 19977),−
same,antibacterial activity,[3]; [17],−
same,antibacterial activity,[4],−
same,antibacterial activity,[5]; [18],−
same,antibacterial activity,"[5]; E. coli O157:H7, 10 μL spot",−
same,antibacterial activity,[6]; P. aeruginosa MDR (ATCC 2114),−
same,antibacterial activity,[6]; P. aeruginosa MDR ATCC 2114,−
same,antibacterial activity,Streptococcus pyogenes; S. pyogenes,−
same,antibacterial activity,Streptococcus pyogenes; [19],−
same,killing of VRE,[7]; incubation period of 1 day,killed
same,antibacterial activity,[7]; VRE (ATCC 51299),−
same,antibacterial activity,[7]; VRE,−
same,antibacterial activity,[8]; A. Baumannii MDR (ATCC 1797),−
same,antibacterial activity,[8]; A. baumannii MDR ATCC 1797,−
same,antibacterial activity,"MRSA (ATCC BAA44); MRSA (ATCC BAA44), 10 μL spot",−
same,antibacterial activity,"MRSA (ATCC BAA44); MRSA ATCC BAA-44, 10 μL spot",−
same,antibacterial activity,Yesenia pestis (Kimo 6),−
Neomycin,antibacterial activity,[1]; [15],−
same,antibacterial activity,[1]; [16],−
same,antibacterial activity,[2],+
same,antibacterial activity,[3]; M. abscessus (ATCC 19977),−
same,antibacterial activity,[3]; [17],−
same,antibacterial activity,[4],−
same,killing of Escherichia coli (O157:H7),[5]; [20],killed
same,antibacterial activity,[5]; [18],+
same,antibacterial activity,"[5]; E. coli O157:H7, 10 μL spot",+
same,killing of Escherichia coli (O157:H7),[5]; after 5 days of incubation,only formulations that killed
same,regrowth of Escherichia coli (O157:H7),[5]; after 5 days of incubation,not observed
same,killing of Bacillus subtilis,[9],killed
same,antibacterial activity,[6]; P. aeruginosa MDR (ATCC 2114),−
same,antibacterial activity,[6]; P. aeruginosa MDR ATCC 2114,−
same,killing of multi-drug resistant Burkholderia cepacia,[10],killed
same,antibacterial activity,[10]; B. cepacia (ATCC 10856),−
same,antibacterial activity,[10]; [21],−
same,killing of Streptococcus pyogenes,Streptococcus pyogenes,killed
same,regrowth of Streptococcus pyogenes colonies in treated area,"Streptococcus pyogenes; FIG. 59, 7 days",colonies invaded
same,antibacterial activity,Streptococcus pyogenes; S. pyogenes,+
same,antibacterial activity,Streptococcus pyogenes; [19],+
same,killing of S. pyogenes,Streptococcus pyogenes,further killed
same,antibacterial activity,[7]; VRE (ATCC 51299),−
same,antibacterial activity,[7]; VRE,−
same,antibacterial activity,[8]; A. Baumannii MDR (ATCC 1797),−
same,antibacterial activity,[8]; A. baumannii MDR ATCC 1797,−
same,antibacterial activity,"MRSA (ATCC BAA44); MRSA (ATCC BAA44), 10 μL spot",−
same,antibacterial activity,"MRSA (ATCC BAA44); MRSA ATCC BAA-44, 10 μL spot",−
same,"efficacy against Yesenia pestis (Kimo 6), comparison with antibiotics",Yesenia pestis (Kimo 6),more effective than MM8
same,antibacterial activity,Yesenia pestis (Kimo 6),−
C/C(=C\C(=O)OCCCCCCCCC(=O)O)C[C@@H]1OC[C@H](C[C@@H]2O[C@H]2[C@@H](C)[C@H](C)O)[C@@H](O)[C@H]1O [Mupirocin],killing of CRE NDM-1 MDR,[1]; [20],killed
same,antibacterial activity,[1]; [15],−
same,antibacterial activity,[1]; [16],−
same,killing of CRE NDM-1 MDR,[1]; after 5 days of incubation,only formulations that killed
same,regrowth of CRE NDM-1 MDR,[1]; after 5 days of incubation,not observed
same,antibacterial activity,[2],−
same,antibacterial activity,[3]; M. abscessus (ATCC 19977),−
same,antibacterial activity,[3]; [17],−
same,antibacterial activity,[4],+
same,killing of Escherichia coli (O157:H7),[5]; [20],killed
same,antibacterial activity,[5]; [18],+
same,antibacterial activity,"[5]; E. coli O157:H7, 10 μL spot",+
same,killing of Escherichia coli (O157:H7),[5]; after 5 days of incubation,only formulations that killed
same,regrowth of Escherichia coli (O157:H7),[5]; after 5 days of incubation,not observed
same,killing of MRSA BAA-1717 (USA 300),MRSA BAA-1717 (USA 300),killed
same,killing of Bacillus subtilis,[9],killed
same,killing of multi-drug resistant E. coli (AR 0346),[11],fully killed
same,killing of multi-drug resistant Pseudomonas aeruginosa,[6]; incubation period of 1 day (FIG. 55),killed
same,antibacterial activity,[6]; P. aeruginosa MDR (ATCC 2114),+
same,antibacterial activity,[6]; P. aeruginosa MDR ATCC 2114,+
same,killing of MCR-1 E. coli (AR 0350; colisitin-resistance only),MCR-1 E. coli (AR 0350),fully killed
same,killing of multi-drug resistant Burkholderia cepacia,[10],killed
same,antibacterial activity,[10]; B. cepacia (ATCC 10856),+
same,antibacterial activity,[10]; [21],+
same,killing of multi-drug resistant E. coli (AR 0348),[12],fully killed
same,killing of Streptococcus pyogenes,Streptococcus pyogenes,killed
same,antibacterial activity,Streptococcus pyogenes; S. pyogenes,+
same,antibacterial activity,Streptococcus pyogenes; [19],+
same,killing of S. pyogenes,Streptococcus pyogenes,further killed
same,antibacterial activity,[7]; VRE (ATCC 51299),−
same,antibacterial activity,[7]; VRE,−
same,killing of A. baumannii,[8]; incubation period of 1 day (FIG. 54),killed
same,antibacterial activity,[8]; A. Baumannii MDR (ATCC 1797),−
same,antibacterial activity,[8]; A. baumannii MDR ATCC 1797,−
same,killing of MRSA,"MRSA (ATCC BAA44); 10 μL spot, incubation period of 1 day (FIG. 52)",killed
same,antibacterial activity,"MRSA (ATCC BAA44); MRSA (ATCC BAA44), 10 μL spot",+
same,antibacterial activity,"MRSA (ATCC BAA44); MRSA ATCC BAA-44, 10 μL spot",+
same,killing of MRSA,MRSA (ATCC BAA44); after 4 days of incubation,only formulations that killed
same,regrowth of MRSA,MRSA (ATCC BAA44); after 4 days of incubation,not observed
same,antibacterial activity,[13],+
same,"efficacy against Yesenia pestis (Kimo 6), comparison with antibiotics",Yesenia pestis (Kimo 6),more effective than MM8
same,antibacterial activity,Yesenia pestis (Kimo 6),+
same,antibacterial activity,[14],+
"O=C(O)c1ccccc1O [2% salicylic acid, salicylic acid]",blood hemolysis,red blood cells,little to no hemolysis
